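Protocol summary: plate cells (96-well), add compound at 5 concentrations, incubate 48 h, interpolate endpoints linearly. At the TGI there is no net growth.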 Where a SMILES comes first, the peptide text is derived from it. Bridges are numbered along the chain shown (N, C = ends). [ ]: non-standard residue; d: D form. Aib = CC(C)(N)C(=O)O; βAla = NCCC(=O)O

Experimental findings from PubChem BioAssay (NCI) are described below.

What all share (experiment): growth of human tumour cells (NCI), 48 h
The test system of experiment [1] is OVCAR-8 ovarian.
Experiment [2] has as its system CCRF-CEM leukemia.
Experiment [3] concerns SK-MEL-2 melanoma.
Experiment [4] deals with UACC-62 melanoma.
For experiment [5], the system named is SNB-75 CNS.
The subject of experiment [6] is ACHN renal.
Experiment [7] has as its system MDA-MB-435.
Experiment [8] has as its system MDA-N.
Experiment [9] concerns NCI-H226 lung.
The test system of experiment [10] is RXF 393 renal.
The subject of experiment [11] is SNB-19 CNS.

For the compound `COc1ccc2c3c1OC1C(F)C=CC4(O)C(C2)NCCC314` (configuration not stated), the TGI was 14.7 µM in [1]; 3.91 µM in experiment [2]; 6.65 µM in experiment [3]; 10.5 µM in experiment [4]; 6.58 µM in [5]; 10.8 µM in experiment [6]. In addition, the TGI in experiment [7] was 3.34 µM; in [8], 11 µM; in experiment [9], 30.8 µM; in experiment [10] it was 7.98 µM; in experiment [11], 5.78 µM.

For the compound `CC1(C)NC(=O)C(NC(=O)C(N)CC(=O)O)CCCCNC(=O)CCNC1=O` (configuration not stated) (H-DK[Aib][βAla]; lactam 2-C; configuration not given here), the TGI in experiment [1], in [2], in experiment [3], in experiment [4], in [5] and in experiment [6] was over 100 µM in each case. Moreover, the TGI in experiment [7], in [8], in experiment [9], in [10] and in experiment [11] was over 100 µM throughout.

As for `Cc1ccc2c(=O)cc(-c3sccc3C)[nH]c2n1`, the TGI in [1] is over 31.8 µM; in experiment [2], over 24.4 µM; in experiment [3], over 40 µM; in [4], over 72 µM; in experiment [5] it was over 100 µM; in [6], over 54.5 µM. The TGI in experiment [7] was over 100 µM; in [8], 0.359 µM; in experiment [9] it was 6.55 µM; in experiment [10] it was over 20.1 µM; in experiment [11], over 100 µM.

Consider `N#C/C(=C\c1ccc(F)cc1)c1nc(-c2cc3ccccc3oc2=O)cs1`, for which the TGI in [1] is 71.9 µM; in experiment [2] it was over 100 µM; in experiment [3], over 100 µM; in experiment [4], 38.7 µM; in [5], 95.9 µM; in experiment [6] it was over 100 µM. In addition, the TGI in experiment [7] is over 100 µM; in experiment [8] it was over 100 µM; in experiment [9], over 100 µM; in experiment [10] it was 64.2 µM; in experiment [11], 41.1 µM.

On to `COc1ccc2c(c1)Cc1c(NCCN(C)C)ccc(C(=O)NCCCN(C)CCCNC(=O)c3ccc(NCCN(C)C)c4c3Nc3ccc(OC)cc3C4)c1N2`, for which the TGI amounted to 2.86 µM in experiment [1]; 5.49 µM in experiment [2]; 0.226 µM in experiment [3]; 0.365 µM in experiment [4]; 0.103 µM in experiment [5]; 9.79 µM in experiment [6]. The TGI in [7] turned out to be 0.191 µM; in experiment [8], 0.224 µM; in experiment [9], 0.241 µM; in experiment [10], 1.85 µM; in experiment [11] it was 1.13 µM.

For the compound `CCOC(=O)c1cc(C2CCN(c3ccccc3)C2=O)c(/C(O)=C/C(C)=O)[nH]1` (configuration not stated), the TGI in experiment [1], in experiment [2], in experiment [3], in experiment [4], in [5] and in experiment [6] was over 100 µM throughout. Also, the TGI is over 100 µM in experiment [7]; over 100 µM in [8]; over 100 µM in experiment [9]; 55.6 µM in experiment [10]; over 100 µM in experiment [11].

Take `Cc1cc(NC2=CC(=O)C(=O)c3ccccc32)no1`: the TGI is 29.4 µM in experiment [1]; 40.9 µM in experiment [2]; 10.4 µM in experiment [3]; 9.27 µM in [4]; 23 µM in experiment [5]; 25.8 µM in experiment [6]. The TGI in experiment [7] stood at 3.34 µM; in [8], 3.34 µM; in experiment [9], 35.9 µM; in [10], 29.6 µM; in experiment [11], 31.9 µM.

Regarding `N#CC(c1ccccc1)N(CCCCCCN(C(=O)c1ccccc1)C(C#N)c1ccccc1)C(=O)c1ccccc1` (configuration not stated), the TGI in [1] was over 100 µM; in experiment [2] it was over 100 µM; in experiment [3] it was 66.3 µM; in [4], 77.7 µM; in experiment [5] it was over 100 µM; in experiment [6], over 100 µM. The TGI in [7] was 73.6 µM; in [8], over 100 µM; in [9], over 100 µM; in [10] it was over 100 µM; in experiment [11] it was over 100 µM.

As to `COc1ccc(C(=O)C#Cc2cn(C3CC(O)C(CO)O3)c(=O)[nH]c2=O)cc1` (configuration not stated), the TGI in [1] is over 100 µM; in [2], over 10 µM; in experiment [3] it was over 100 µM; in experiment [4], over 100 µM; in [5], over 100 µM; in experiment [6], over 100 µM. Moreover, the TGI in experiment [7], in experiment [8], in experiment [9], in experiment [10] and in experiment [11] was over 100 µM in each case.

Turning to `CCOC1CN=C(Nc2cccc3ccccc23)S1` (configuration not stated), the TGI in experiment [1], in [2], in experiment [3], in experiment [4], in experiment [5] and in experiment [6] was over 10 µM in each case. Further, the TGI in [7], in experiment [8], in experiment [9], in experiment [10] and in [11] was over 10 µM in each case.

`CCc1cccc(C(C)C)c1NC(=O)C(=O)C1C(=O)Nc2ccccc2S1=O` (configuration not stated): the TGI in experiment [1], in experiment [2], in experiment [3], in experiment [4], in experiment [5] and in [6] was over 100 µM throughout. Also, the TGI in experiment [7], in experiment [8], in experiment [9], in [10] and in [11] was over 100 µM in each case.

For the compound `CC1=C(C(=O)OC2CC3CCC2(C)C3(C)C)C2Nc3ccccc3N(C)C2O1` (configuration not stated), the TGI in experiment [1] came to 9.02 µM; in experiment [2], 7.07 µM; in [3], 7.9 µM; in experiment [4], 4.29 µM; in experiment [5] it was 11.5 µM; in [6], 11.2 µM. In addition, the TGI is 3.13 µM in experiment [7]; 3.55 µM in [8]; 39.3 µM in experiment [9]; 18.5 µM in experiment [10]; 10.1 µM in experiment [11].
